# Publication PMC7071076, “Antibacterial Activity and Pharmacokinetic Profile of a Promising Antibacterial Agent: 22-(2-Amino-phenylsulfanyl)-22-Deoxypleuromutilin” (Molecules, 2020)
# Values joined by “and” are separate entries in the source; they are usually repeats but may differ in a detail not shown here. Equal entries are not always repeated.
# Legend:
# [1] = Pharmacokinetic study in mice; format: in vivo; details: for plasma concentration, individual mice: mice 1-8 in order
# Method: Pharmacokinetic parameters of amphenmulin were measured according to previous reports with some modifications. Each group consisted of eight female SPF-ICR mice. Amphenmulin (1 mg/mL) was administered intravenously, intraperitoneally, and orally at a dose of 10 mg/kg, respectively. Formulation of amphenmulin was a filtered solution in 5% DMSO, 5% Tween-80, and 90% normal saline. Serial samples (each 0.2 mL) were collected from the ocular venous plexus and placed in a plastic centrifuge tube. The blood samples were placed at room temperature for 20 min and transferred to a 4 °C refrigerator for 12 h to promote blood coagulation. Then samples were centrifuged at 2000 r/min for 10 min to get serum. Serum samples were frozen at −20°C. 100 µL of samples was accurately absorbed and mixed with 100 µL of acetonitrile in a 1.5 mL centrifuge tube. The sample was mixed vigorously and centrifuged at 12,000 rpm for 10 min. The supernatant was transferred, filtered through a 0.22 μm cellulose membrane filter and used for LC-MS/MS analysis. Equipment and analysis conditions were shown in supplemental data. The pharmacokinetic parameters of amphenmulin were determined from the mean plasma concentration with noncompartmental analysis in WinNonlin 5.2 software (Pharsight, Mountain View, CA, USA). Data were shown as mean ± standard deviation (SD).
# MRSA ATCC 43300 [2] = assay: MRSA wound infection model: wound size; format: in vivo, mice; details: after treatment for three days; 100 μL drug (3 mg/mL) on the wound
# Method: (§1) Six weeks SPF-ICR female mice were used for this study. The Experimental model, inducted of inflammatory in mice by skin excision, was established referring to existing methods with some alterations. The mice were anesthetized with the intravenous injection of 1% sodium pentobarbital. After their hair on the back was shaved, the mice were anesthetized and the back skin was perforated with a biopsy perforator at a depth of fascia injury. The inoculum (50 μL), containing 10^9 CFU/mL of the indicated microorganism (MRSA ATCC 43300), was applied on the wound for three times at 30 min intervals. 100 μL drug (3 mg/mL) was administrated on the wound at 1 h after inoculation for three consecutive days. A total of 100 μL blank matrix was given to the infected control group and the non-infected group in the same way. The wound was wrapped with sterile gauze. During the treatment, all mice were kept individually and free to eat and drink.
# The wounds were examined on day 1 and days 3 after treatment. The area of wound were measured according to previous reports with some modifications. In each group, six mice were taken out and anesthetized to take photos and measure the size of the wound as the results.
# MRSA ATCC 43300 [3] = assay: MRSA wound infection model: wound bacterial burden; format: in vivo, mice
# Method: as §1
# At the end of the examination, mice were anesthetized and killed. Tissue samples, reaching to the muscle membrane, were removed from the middle of the wound surface and homogenized in 0.9% saline. Serially diluted aliquots of homogenate were cultured on high-salt mannitol agar plate at 37 °C for 24 h. The log of the colony number was used for statistical analysis.
# IL-6 = assay: MRSA wound infection model: serum cytokine ELISA; format: in vivo, mice; details: three days after treatment (method: 24 h), p < 0.05
# Method: as §1
# (§2) After administration for 24 h, blood samples were collected from the ocular venous plexus and were prepared to serum samples as previously described. The contents of IL-6, TNF-α, and MCP-1 in serum were detected using ELISA kits according to the instruction. All ELISA kits were purchased from Shanghai Enzyme-linked Biotechnology Co., Ltd. (Shanghai, China).
# MCP-1 = assay: MRSA wound infection model: serum cytokine ELISA; format: in vivo, mice; details: three days after treatment (method: 24 h), p < 0.05
# Method: as §1, §2
# TNF-α = assay: MRSA wound infection model: serum cytokine ELISA; format: in vivo, mice; details: three days after treatment (method: 24 h), p < 0.05
# Method: as §1, §2
# [4] = female, ICR, mouse, plasma, mice, 10 mg/kg, intravenous
# [5] = female, ICR, mouse, plasma, mice, 10 mg/kg, oral
structure (smiles),measurement,setting,value
"C=C[C@]1(C)C[C@@H](OC(=O)CSc2ccccc2N)[C@]2(C)[C@H](C)CC[C@]3(CCC(=O)[C@H]32)[C@@H](C)[C@@H]1O [Amphenmulin, 22-(2-amino-phenylsulfanyl)-22-deoxypleuromutilin]",concentration at 4 h,"[1]; female, ICR, mouse, plasma, po, 10 mg/kg, mice, oral 10 mg/kg, 4 h, n = 8, read-out: plasma concentration, mean ± S.D",150 ± 80 ng/mL
same,concentration at 6 h,"[1]; female, ICR, mouse, plasma, po, 10 mg/kg, mice, oral 10 mg/kg, 6 h, n = 8, read-out: plasma concentration, mean ± S.D",80 ± 30 ng/mL
same,concentration at 8 h,"[1]; female, ICR, mouse, plasma, po, 10 mg/kg, mice, oral 10 mg/kg, 8 h, n = 8, read-out: plasma concentration, mean ± S.D",50 ± 20 ng/mL
same,concentration at 12 h,"[1]; female, ICR, mouse, plasma, po, 10 mg/kg, mice, oral 10 mg/kg, 12 h, n = 8, read-out: plasma concentration, mean ± S.D",20 ± 10 ng/mL
same,AUC(0-inf),[1]; [4],12200 ± 1350 ng·h/mL
same,MRT,[1]; [4],2.57 ± 0.19 h
same,half-life,[1]; [4],1.92 ± 0.28 h
same,Vd,"[1]; female, ICR, mouse, plasma, mice, 10 mg/kg, intravenous, read-out: Vz",2.17 ± 0.42 L/kg
same,AUC(0-inf),[1]; [5],1670 ± 660 ng·h/mL
same,Cmax,[1]; [5],530 ± 180 ng/mL
same,MRT,[1]; [5],4.01 ± 0.62 h
same,Tmax,[1]; [5],1.37 ± 0.74 h
same,bioavailability,[1]; [5],13.7%
same,half-life,[1]; [5],2.91 ± 0.81 h
same,Vd/F,"[1]; female, ICR, mouse, plasma, mice, 10 mg/kg, oral, read-out: Vz/F",28.5 ± 9.01 L/kg
same,"plasma concentration, individual mice","[1]; intraperitoneal 10 mg/kg, 0.083 h",0.94 µg/mL and 0.70 µg/mL and 0.61 µg/mL and 0.48 µg/mL and 0.79 µg/mL and 1.48 µg/mL and 0.68 µg/mL and 1.14 µg/mL
same,"plasma concentration, individual mice","[1]; intraperitoneal 10 mg/kg, 0.25 h",0.98 µg/mL and 1.39 µg/mL and 1.10 µg/mL and 0.89 µg/mL and 1.15 µg/mL and 2.26 µg/mL and 1.20 µg/mL and 0.78 µg/mL
same,"plasma concentration, individual mice","[1]; intraperitoneal 10 mg/kg, 0.5 h",0.81 µg/mL and 1.39 µg/mL and 1.54 µg/mL and 0.58 µg/mL and 0.89 µg/mL and 1.48 µg/mL and 0.54 µg/mL and 0.61 µg/mL
same,"plasma concentration, individual mice","[1]; intraperitoneal 10 mg/kg, 0.75 h",0.42 µg/mL and 0.40 µg/mL
same,"plasma concentration, individual mice","[1]; intravenous 10 mg/kg, 0.083 h, 10 mg/kg",4.5 µg/mL and 3.97 µg/mL and 3.15 µg/mL and 4.2 µg/mL and 5.1 µg/mL and 3.25 µg/mL and 4.31 µg/mL
same,"plasma concentration, individual mice","[1]; intravenous 10 mg/kg, 0.25 h, 10 mg/kg",3.07 µg/mL and 3.57 µg/mL and 3.78 µg/mL and 4.44 µg/mL and 3.64 µg/mL and 4.65 µg/mL and 4.18 µg/mL
same,"plasma concentration, individual mice","[1]; intravenous 10 mg/kg, 0.5 h, 10 mg/kg",3.66 µg/mL and 3.82 µg/mL and 3.09 µg/mL and 3.18 µg/mL and 4.31 µg/mL and 3.98 µg/mL and 3.54 µg/mL
same,"plasma concentration, individual mice","[1]; intravenous 10 mg/kg, 0.75 h, 10 mg/kg",3.46 µg/mL and 4.22 µg/mL and 3.49 µg/mL and 2.98 µg/mL and 4.21 µg/mL and 3.48 µg/mL and 2.31 µg/mL
same,"plasma concentration, individual mice","[1]; intravenous 10 mg/kg, 1 h, 10 mg/kg",3.90 µg/mL and 3.62 µg/mL and 3.02 µg/mL and 2.02 µg/mL and 2.52 µg/mL and 2.95 µg/mL and 3.40 µg/mL and 4.09 µg/mL
same,"plasma concentration, individual mice","[1]; intravenous 10 mg/kg, 2 h, 10 mg/kg",1.56 µg/mL and 1.41 µg/mL and 2.31 µg/mL and 2.00 µg/mL and 2.56 µg/mL and 2.83 µg/mL and 3.14 µg/mL and 2.61 µg/mL
same,"plasma concentration, individual mice","[1]; intravenous 10 mg/kg, 4 h, 10 mg/kg",0.99 µg/mL and 1.32 µg/mL and 1.00 µg/mL and 1.10 µg/mL and 0.89 µg/mL and 0.79 µg/mL and 0.94 µg/mL
same,"plasma concentration, individual mice","[1]; intravenous 10 mg/kg, 6 h, 10 mg/kg",0.31 µg/mL and 0.43 µg/mL and 0.54 µg/mL and 0.52 µg/mL and 0.29 µg/mL and 0.34 µg/mL and 0.44 µg/mL
same,"plasma concentration, individual mice","[1]; intravenous 10 mg/kg, 8 h, 10 mg/kg",0.10 µg/mL and 0.16 µg/mL and 0.30 µg/mL and 0.24 µg/mL and 0.19 µg/mL and 0.12 µg/mL and 0.28 µg/mL and 0.32 µg/mL
same,"plasma concentration, individual mice","[1]; intravenous 10 mg/kg, 12 h, 10 mg/kg",0.03 µg/mL (2×) and 0.05 µg/mL (3×) and 0.08 µg/mL and 0.04 µg/mL and 0.06 µg/mL
same,CLβ/F,"[1]; mice, 10 mg/kg, intraperitoneal",68 ± 19 mL/min/kg
same,CLβ,"[1]; mice, 10 mg/kg, intravenous",13.7 ± 1.5 mL/min/kg
same,CLβ/F,"[1]; mice, 10 mg/kg, oral",105 ± 37.7 mL/min/kg
same,wound area,MRSA ATCC 43300 [2],0.47 ± 0.09 cm^2
same,number of bacteria in wound tissue vs infected group,"MRSA ATCC 43300 [3]; one day after treatment, p < 0.05",significant decrease
same,number of bacteria in wound tissue,"MRSA ATCC 43300 [3]; three days after treatment, 100 μL drug (3 mg/mL) on the wound",4.47 ± 0.66 log10 CFU/mL
same,IL-6 in the serum vs infection group,IL-6,significantly decreased
same,MCP-1 in the serum vs infection group,MCP-1,significantly decreased
same,TNF-α in the serum vs infection group,TNF-α,significantly decreased
